Results from ChEMBL document CHEMBL1143939, “Binding effect and design of a competitive inhibitory peptide for HMG-CoA reductase through modeling of an active peptide backbone” (Bioorg Med Chem, 2008).
Activity calls are given as the source filed them. No cut-off for these calls is given here. Non-standard residues stand in square brackets, D forms with d. Residues, ends and D or L forms follow the SMILES beside them. Phe(4-F) = N[C@@H](Cc1ccc(F)cc1)C(=O)O

Target: T1, 3-hydroxy-3-methylglutaryl-coenzyme A reductase (Mesocricetus auratus) (UniProt P09610)
T1 sequence (whole entry): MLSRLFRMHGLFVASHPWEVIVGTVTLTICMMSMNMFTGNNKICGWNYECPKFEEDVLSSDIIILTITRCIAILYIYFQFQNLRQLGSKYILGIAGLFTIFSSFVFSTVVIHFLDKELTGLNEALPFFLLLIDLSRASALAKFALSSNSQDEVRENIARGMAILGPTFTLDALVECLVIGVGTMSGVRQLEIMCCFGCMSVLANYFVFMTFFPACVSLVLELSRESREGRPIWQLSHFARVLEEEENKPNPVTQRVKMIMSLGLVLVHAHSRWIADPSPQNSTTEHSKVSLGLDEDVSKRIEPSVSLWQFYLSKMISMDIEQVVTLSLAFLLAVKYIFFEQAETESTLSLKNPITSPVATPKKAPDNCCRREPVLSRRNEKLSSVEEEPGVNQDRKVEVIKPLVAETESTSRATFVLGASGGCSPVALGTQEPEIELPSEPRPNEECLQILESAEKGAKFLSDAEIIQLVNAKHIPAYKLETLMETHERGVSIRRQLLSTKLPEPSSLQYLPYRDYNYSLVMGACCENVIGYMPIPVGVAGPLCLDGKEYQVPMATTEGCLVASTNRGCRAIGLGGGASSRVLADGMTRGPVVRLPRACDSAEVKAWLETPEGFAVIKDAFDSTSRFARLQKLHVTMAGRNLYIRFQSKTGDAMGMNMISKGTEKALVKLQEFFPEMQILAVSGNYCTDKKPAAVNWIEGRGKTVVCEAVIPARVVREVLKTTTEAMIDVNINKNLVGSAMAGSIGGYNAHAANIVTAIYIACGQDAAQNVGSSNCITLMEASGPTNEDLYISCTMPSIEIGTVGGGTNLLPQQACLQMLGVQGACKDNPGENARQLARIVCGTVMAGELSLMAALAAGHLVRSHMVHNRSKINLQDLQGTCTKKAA
Test: (§1) Inhibition of Syrian hamster HMGR

Compound	Activity
CC(C)[C@H](NC(=O)CN)C(=O)N[C@@H](C)C(=O)N[C@@H](CCC(=O)O)C(=O)O (H-GVAE-OH)	inactive
H-GGPTGG-OH	inactive

Target: T2, 3-hydroxy-3-methylglutaryl-coenzyme A reductase (Mesocricetus auratus, UniProt P09610)
T2 sequence (P09610 whole entry): T1 sequence (whole entry)
Test: as §1

Compound	IC50
CC(C)[C@H](NC(=O)[C@@H](N)Cc1ccccc1)C(=O)N[C@@H](C)C(=O)N[C@@H](CCC(=O)O)C(=O)O (H-FVAE-OH)	43.8 µM
CC[C@H](C)[C@H](N)C(=O)N[C@@H](C)C(=O)N[C@H](C(=O)N[C@@H](CCC(=O)O)C(=O)O)C(C)C (H-IAVE-OH)	75.2 µM
CC[C@H](C)[C@H](N)C(=O)N[C@@H](C)C(=O)N[C@H](C(=O)N1CCC[C@H]1C(=O)O)C(C)C (H-IAVP-OH)	97.1 µM
CC[C@H](C)[C@H](N)C(=O)N[C@H](C(=O)N[C@@H](C)C(=O)N[C@@H](CCC(=O)O)C(=O)O)C(C)C (H-IVAE-OH)	44.1 µM
CC(C)C[C@H](N)C(=O)N1CCC[C@H]1C(=O)N[C@@H](Cc1ccc(O)cc1)C(=O)N1CCC[C@H]1C(=O)O (H-LPYP-OH)	485 µM
CC(C)[C@H](NC(=O)[C@H](C)NC(=O)[C@@H](N)Cc1ccc(O)cc1)C(=O)N[C@@H](CCC(=O)O)C(=O)O (H-YAVE-OH)	52.6 µM
CC(C)[C@H](NC(=O)[C@@H](N)Cc1ccc(O)cc1)C(=O)N[C@@H](C)C(=O)N[C@@H](CCC(=O)O)C(=O)O (H-YVAE-OH)	41.8 µM
CC(C)[C@H](NC(=O)[C@@H](N)Cc1ccc(F)cc1)C(=O)N[C@@H](C)C(=O)N[C@@H](CCC(=O)O)C(=O)O (H-[Phe(4-F)]VAE-OH)	3.8 µM
H-GFPDGG-OH	1.5 µM
H-GFPEGG-OH	1.7 µM
H-GFPTGG-OH	16.9 µM
H-GLPDGG-OH	22.3 µM
H-GLPEGG-OH	27.2 µM
H-GLPTGG-OH	19.4 µM
H-IAVPGEVA-OH	152 µM
